# From PMC7532663, “Pharmacological inhibition of mTORC1 increases CCKBR-specific tumor uptake of radiolabeled minigastrin analogue [^177Lu]Lu-PP-F11N” (Theranostics, 2020)
# Values joined by “and” are separate entries in the source; they are usually repeats but may differ in a detail not shown here. Identical values can stand only once.
# Tests used:
# AR42J cells [1] = format: cell-based, rat
# Source text: (§1) […]. […] […].
# A431 cells = test: Total protein concentration of cell lysates; format: cell-based, human; settings: 100 nM RAD001
# Source text: as §1
# A431/CCKBR cells [2] = test: Total protein concentration of cell lysates; format: cell-based, human; settings: for total protein level compared to control: 100 nM RAD001 or 10 mM metformin, 20 h
# Source text: as §1
# AR42J cells [3] = test: Total protein concentration of cell lysates; format: cell-based, rat; settings: 100 nM RAD001
# Source text: as §1
# [4] = tested on: mTORC1-regulated phosphorylation of the ribosomal protein S6 at Ser235/236; test: WB analysis of phospho-S6; format: cell-based, human; settings: for phosphorylation of S6 at Ser235/236 (WB): A431/CCKBR cells, 100 nM RAD001 or 10 mM metformin
# Method: (§2) Antibodies against phospho-S6 at S235/S236 (D57.2.2F), ERK1/2 (9102), phospho-ERK1/2 (T202/Y204), GAPDH (14C10) and HA-Tag (C29F4) were obtained from Cell Signaling Technology, whereas the anti-CCKBR (ab77077) was from Abcam. Cells were homogenized in lysis buffer (50 mM Tris-HCl pH 7.5, 150 mM NaCl, 1% Triton X, 0.1% SDS supplemented with 1 mM sodium orthovanadate, 1 mM NaF and protease inhibitor cocktail (Roche)). 50 μg of total protein lysates were separated by SDS-PAGE and transferred to PVDF membranes (Millipore) by electroblotting. Membranes were blocked with 5% skim milk in TBST (0.1% Tween 20) for 1 h, and incubated with 2% BSA in TBST overnight with the primary antibody followed by 2 h incubation with HRP-conjugated secondary antibody. Signals were produced by using a chemiluminescence reagent (ECL) and acquired by ImageQuant RT ECL Imager (GE Healthcare). Prior to CCKBR detection by WB, protein lysates were subjected to deglycosylation. Briefly, 18 μL of total protein lysates (50 µg) were mixed with 2 μL of 10× denaturing buffer (5% SDS, 0.4 M DTT) and incubated for 10 min at RT. Next, 4 μL of 10× Glycobuffer (0.5 M sodium phosphate, pH 7.5), 4 μL of 10% Tween-20 and 10 μL of water were added. Finally, 2 μL of PNGase F (Sigma) was added and the reaction was carried out for 16 h at 37°C.
# CCKBR = test: WB analysis of CCKBR protein level in deglycosylated lysates; format: cell-based, human; settings: 50 or 100 nM RAD001, 20 h; A431/CCKBR; CCKBR/GAPDH
# Method: as §2
# [5] = tested on: β-arrestin-1 recruitment to CCKBR; test: Split luciferase arrestin recruitment assay; format: cell-based, human; settings: RAD001 20 h, then 1 µM PP-F11N
# [6] = tested on: β-arrestin-2 recruitment to CCKBR; test: Split luciferase arrestin recruitment assay; format: cell-based, human; settings: RAD001 20 h, then 1 µM PP-F11N
# A431/CCKBR cells [7] = test: Hoechst fluorescence cell number control; format: cell-based, human; settings: RAD001 pretreatment 20 h
# [8] = tested on: A431/CCKBR-tumor bearing nude mice; test: Tumor volume, mouse weight and toxicity during treatment; format: in vivo
# A431/CCKBR tumors = test: HE staining and immunohistochemistry of tumor sections; format: in vivo, mouse; settings: for mitotic index / necrosis (necrotic area) / Ki67 positive cells: 5 days treatment, mean ± SD; for tumor vascularization: HE and CD34, five-day treatment; for necrosis (necrotic area): HE stain; for Ki67 positive cells: IHC
# Method: Formalin-fixed, paraffin tumor sections were deparaffinized, rehydrated and pretreated in 10 mM citrate buffer, pH 6.0, at 98 °C for 60 minutes, followed by incubation with 4% fat-free milk in PBS for 90 minutes. For avidin/biotin blocker treatment (Invitrogen) and detection, the ABC method was used. For monoclonal antibody against Ki67 (SP6, Thermo Scientific) and CD34 (cloneQBend/10; Dako) signals were recorded using an automated instrument reagent system (Discovery XT, Ventana Medical System Inc.). Images of hematoxylin-counterstained sections were captured (Nikon, YTHM) and analyzed using ImageAccess Enterprise7 and ImageJ software. Tumor necrotic areas and vascularization were analyzed in 10 (RAD001 and PBS) and 8 (metformin) images, whereas Ki67 and mitotic index in 15 (RAD001 and PBS) and 12 (metformin) images.
# A431/CCKBR cells [9] = settings: 100 nM RAD001 or 10 mM metformin; for internalization ratio [treatment/control]: 20 h; for [177Lu]Lu-PP-F11N internalization in treated cells: 20 h treatment, 0.3 pmol radioligand 1 h, triplicate
# Method: Radioactive medium (and PBS wash) was collected and the cells were washed 2× with glycine buffer (pH=2) for 5 min at RT followed by a dissolving step in 1 M NaOH for 15 min at 37°C. All 3 fractions (medium/PBS; glycine; dissolved cells) were measured on Cobra II Auto-Gamma counter (Packard). For the cell uptake analysis, the PBS-washed cells were directly dissolved in 1M NaOH, or combined glycine-wash and 1M NaOH dissolved cells, were measured on the Gamma counter. […] Protein concentration of cell lysates was measured by using NanoPhotometer® UV-Vis P-Class (Implen).
# [10] = tested on: A431/CCKBR-tumor bearing nude mice; settings: for influence on [177Lu]Lu-PP-F11N tumor uptake: three doses of metformin or one RAD001 dose
# A431/CCKBR cells [11] = test: Kinase inhibitor library screen: [177Lu]Lu-PP-F11N cell uptake; format: cell-based, human; settings: ratio treatment/control; 10 μM inhibitor
# A431/CCKBR cells [12] = test: CellTiter 96 AQueous (MTS) proliferation assay; format: cell-based, human; settings: for Proliferation [A570]: 10 μM kinase inhibitor, MTS absorbance at 570 nm, reference 650 nm, mean of triplicate; for Proliferation (ratio): ratio treatment/control, 10 μM inhibitor
# [13] = clinical study; cited from earlier work
# Source text: Overexpression of G-protein coupled receptors (GPCRs) that selectively bind their peptide ligands allowed the development of the peptide receptor radionuclide therapy (PRRT) for human cancers. One of the most important properties of PRRT is a high uptake ratio of tumor-to-healthy-tissue in terms of radiolabeled ligands. Consequently, the molecular strategies which increase uptake of radiopharmaceuticals selectively in cancer tissue while sparing healthy organs from cytotoxic side effects have huge potential to improve PRRT efficacy. Activated GPCRs by agonistic ligand-based radiotherapeuti ...
# in vivo = settings: female, CD-1 nude, mouse, iv, 3 pmol, total radioactivity, Uptake [% i.A./g], PBS group, control PBS-treated mice, 3 pmol i.v., 4 h post injection, mean
Compound,total protein level compared to control (A431/CCKBR cells [2]),phosphorylation of S6 at Ser235/236 (WB) [4],mouse weight ([8]; 3 daily doses),tumor volume ([8]; 3 daily doses),mouse weight ([8]; 5 days daily treatment),tumor volume ([8]; 5 days daily treatment),mitotic index (A431/CCKBR tumors),tumor vascularization (A431/CCKBR tumors),necrosis (necrotic area) (A431/CCKBR tumors),Ki67 positive cells (A431/CCKBR tumors),internalization ratio [treatment/control] (A431/CCKBR cells [9]),[177Lu]Lu-PP-F11N internalization in treated cells (A431/CCKBR cells [9]),influence on [177Lu]Lu-PP-F11N tumor uptake [10],Uptake (ratio) (A431/CCKBR cells [11]),Proliferation [A570] (A431/CCKBR cells [12]),Proliferation (ratio) (A431/CCKBR cells [12]),other results
"CO[C@H]1C[C@@H]2CC[C@@H](C)[C@@](O)(O2)C(=O)C(=O)N2CCCC[C@H]2C(=O)O[C@H]([C@H](C)C[C@@H]2CC[C@@H](OCCO)[C@H](OC)C2)CC(=O)[C@H](C)/C=C(\C)[C@@H](O)[C@@H](OC)C(=O)[C@H](C)C[C@H](C)/C=C/C=C/C=C/1C [RAD001, Everolimus]",79%,lack of mTORC1-regulated phosphorylation,without influencing overall mouse weight,significantly reduced tumor volumes,without influencing overall mouse weight,significantly reduced tumor volumes,0.75% and 0.75 ± 0.36%,No significant difference,10.6 ± 6.4%,61% and 61 ± 8.6%,1.5,24.3%,only moderately and did not reach statistical significance,,,,"internalization ratio [RAD001/control] (AR42J cells [1]): 1.7; [177Lu]Lu-PP-F11N internalization in treated cells (AR42J cells [1]; 100 nM RAD001): 10%; total protein level compared to control (A431 cells): 79%; total protein level compared to control (AR42J cells [3]): 84%; S6 phosphorylation (WB) ([4]; 20 h incubation with 50, 100 and 200 nM RAD001, A431/CCKBR): inhibited S6 phosphorylation; increase of CCKBR level (CCKBR): 2.2 fold; effect of RAD001 on β-arrestin-1 recruitment [5]: no difference; effect of RAD001 on β-arrestin-2 recruitment [6]: no difference; cell number by Hoechst fluorescence (A431/CCKBR cells [7]): significantly reduced cell number; [177Lu]Lu-PP-F11N uptake in tumors of matching sizes ([10]; tumors ranging from 50-150 or 50-180 mg): statistically significant increase"
"CN(C)C(=N)N=C(N)N [Metformin, metformin]",80%,lack of mTORC1-regulated phosphorylation,no effects,no effects,no effects,no effects,did not cause a significant change,No significant difference,did not show a significant difference,did not cause a significant change,1.3,21.1%,only moderately and did not reach statistical significance,,,,
CO[C@H]1C[C@@H]2CC[C@@H](C)[C@@](O)(O2)C(=O)C(=O)N2CCCC[C@H]2C(=O)O[C@H]([C@H](C)C[C@@H]2CC[C@@H](O)[C@H](OC)C2)CC(=O)[C@H](C)/C=C(\C)[C@@H](O)[C@@H](OC)C(=O)[C@H](C)C[C@H](C)/C=C/C=C/C=C/1C [Rapamycin],,,,,,,,,,,,,,1.24,0.91,0.94,"decrease of total protein level (A431/CCKBR cells [2]; 10 µM, lysates of validation experiment): 26%"
O=C(O)c1ccc2nc(-c3ccccc3)c(-c3ccccc3)nc2c1 [BML-257],,,,,,,,,,,,,,1.26,0.95,0.98,
"CCCC[C@H](NC(=O)[C@H](Cc1c[nH]c2ccccc12)NC(=O)CNC(=O)[C@H](Cc1ccc(O)cc1)NC(=O)[C@H](C)NC(=O)[C@@H](CCC(=O)O)NC(=O)[C@@H](CCC(=O)O)NC(=O)[C@@H](CCC(=O)O)NC(=O)[C@@H](CCC(=O)O)NC(=O)[C@@H](CCC(=O)O)NC(=O)[C@@H](CCC(=O)O)NC(=O)CN1CCN(CC(=O)O)CCN(CC(=O)O)CCN(CC(=O)O)CC1)C(=O)N[C@@H](CC(=O)O)C(=O)N[C@@H](Cc1ccccc1)C(N)=O [[^177Lu]Lu-PP-F11N, [^177Lu]Lu-DOTA-(DGlu)6-Ala-Tyr-Gly-Trp-Nle-Asp-Phe-NH2, metal not drawn]",,,,,,,,,,,,,,,,,"median tumor-to-kidney dose ratio [13]: 11.6; tumor-to-stomach dose ratio [13]: 3.34; tissue uptake at 4 h (in vivo; Blood): 0.043 %ID/g; tissue uptake at 4 h (in vivo; Bone): 0.37 %ID/g; tissue uptake at 4 h (in vivo; Brain): 0.03 %ID/g; tissue uptake at 4 h (in vivo; Intestines): 0.23 %ID/g; tissue uptake at 4 h (in vivo; Kidney): 3.07 %ID/g; tissue uptake at 4 h (in vivo; Liver): 0.17 %ID/g; tissue uptake at 4 h (in vivo; Lung): 0.08 %ID/g; tissue uptake at 4 h (in vivo; Pancreas): 0.12 %ID/g; tissue uptake at 4 h (in vivo; Spleen): 0.1 %ID/g; tissue uptake at 4 h (in vivo; Stomach): 1.01 %ID/g; tissue uptake at 4 h (in vivo; Tumor, n=6): 10.9 %ID/g"
